This note sets out measurements from PMC11475408, “All‐Inorganic Polyoxometalates Act as Superchaotropic Membrane Carriers” (Advanced Materials (Deerfield Beach, Fla.), 2023).

Series [1] concerns polyarginine. Put plainly: ITC, POM into polyarginine. In kind it is binding. To be noted: 10 mM Tris, pH 7.4, value is Ka divided by 10^7. How it is done: (§1) All experiments were performed with a VP‐ITC MicroCalorimeter from MicroCal, Int,. at atmospheric pressure and 298.15 K. Solutions were degassed and thermostatic prior to the titration experiments in a ThermoVac accessory. A constant volume of POM ([PVW11]^4‒ or [SiMoW11]^4‒) (10 µL per injection) was injected into the oligopeptide solution (heptaArg, protamine, polyArg or heptaLys) in 10 mM Tris, pH 7.4 to determine the apparent binding affinity of [PVW11]^4‒ and [SiMoW11]^4‒ with the oligopeptides. Dilution heats were determined by titration of the POM into buffer and subtracted from the reaction heat. The neat reaction heat was fitted with Origin 7.0 software by using the “one‐set‐of‐sites” model to obtain the complex stability constant (K a) and molar reaction enthalpy (∆H°). The free energy (∆G°) and entropy changes (∆S°) were obtained according to the relation: ∆G° = −RTlnK a = ∆H°−T∆S°.
(§2) 4. Supramolecular interactions
(§3) Figure S10. Microcalorimetric titrations in 10 mM Tris, pH 7.4: Raw ITC data (top) for the sequential injections of POM solution into an oligoarginine solution, and apparent reaction heats (bottom) obtained from the integration of the calorimetric traces. […]
(§4) values and ± 0.5 kcal mol‒1 for ΔH and TΔS (duplicate measurements). Note that none of these interactions lead to any precipitation or aggregates, confirmed by the absence of any detectable signal by DLS. […]

The test system of series [2] is heptaarginine. Put plainly: ITC, POM into heptaarginine. To be noted: 10 mM Tris. In kind it is binding. How it is done:
as §1, §2, §3, §4
Figure S11. Microcalorimetric titrations in 10 mM Tris, pH 7.4: Raw ITC data (top) for the sequential injections of POM solution into a heptalysine solution, and apparent reaction heats (bottom) obtained from the integration of the calorimetric traces. POM/heptalysine concentrations in µM: a, 200/8 and b, 150/10. Error data is 5% for the n values and ± 0.5 kcal mol‒1 for ΔH and TΔS (duplicate […]
Table S6. Binding constants (Ka in M‒1) and thermodinamic data (in kcal mol‒1) measured for the complex formation between the stable and active POMs and oligoarginines in 10 mM Tris, pH 7.4. a) […]
a) Error data is 5% for the n values and ± 0.5 kcal mol‒1 for ΔH and TΔS (duplicate measurements).

Series [3] can be described thus: Hydrolysis/stability of POMs in buffer by NMR. To be noted: for Hydrolysis/stability pH 5.5: 10 mM Mes, 107 mM NaCl, NMR, long-term (24 h and longer).
Protocol: First, their long‐term (24 h and longer) fate in aqueous solution (slightly acidic and neutral) was investigated by applying the active NMR nuclei in their composition (Table S9 and Figures S24–S37, see the Supporting Information for details).
NMR-spectroscopic characterization of identity and stability
NMR spectroscopy for all POMs tested was performed under experimental conditions.
Series [4] can be described thus: CF transport assay in EYPC⊃CF vesicles (carrier activity). Also on record: key to Carrier activity: ‐ – ‐: No detectable activity at pH 5.5 and 7.4. In kind it is biochemical. To be noted: for Transport activity (in words): EYPC⊃CF vesicles, neutral pH, carrier then cargo. An excerpt: The capability of POMs to act as membrane carriers was explored first in large unilamellar vesicles (LUVs) loaded with carboxyfluorescein (CF).^[ [54], [55] ^] We selected […] representative cationic peptides, heptaarginine (heptaArg), heptalysine (heptaLys), protamine, and polyarginine (polyArg), as test cargos. Inside the LUVs, the CF dye was encapsulated at self‐quenching concentrations. With a suitable carrier, heptaArg can be taken up into the vesicles, bind with entrapped CF, and shuttle back to the exterior, diluting the previously quenched CF, and thereby restoring its fluorescence (Figure 1c). In the time‐resolved fluorescence experiments (Figure 2a), to test whether a particular POM acts as molecular carrier, the CF emission was continuously monitored during the addition of the inorganic carrier (t = 60 s) and after injection of the impermeable selected cargo (t = 120 s). Toward the end of the experiment (t = 600 s), the surfactant Triton X‐100 was added to release all the entrapped CF and allow normalization of the intensity data.
A thin lipid film was prepared by evaporating a lipid solution of EYPC (egg yolk phosphatidylcholine, 25 mg) in CHCl3 (1 mL) with a stream of nitrogen and then dried in vacuo overnight. The dry film was rehydrated with 1 mL buffer (50 mM CF, 10 mM Hepes, pH 7.4 or 50 mM CF, 10 mM Tris, pH 7.4) for 30 min at room temperature, subjected to freeze–thaw cycles (7 times) and extrusions (15 times) through a polycarbonate membrane (pore size 100 nm). Extravesicular components were removed by size exclusion chromatography (NAP‐25 column Sephadex G‐25 DNA grade) with 10 mM Hepes, 107 mM NaCl, pH 7.4, or 10 mM Hepes, 107 mM NaCl, pH 7.4. Phospholipid concentration was calculated by the Stewart assay.^[ [81] ^]
Acidic vesicles were prepared analogously but the rehydration and elution buffer were 50 mM CF, 10 mM Mes, pH 5.5 and 10 mM Mes, 107 mM NaCl, pH 5.5. respectively.
Vesicles stock solutions (5–10 µL) were diluted with the corresponding buffer in a disposable plastic cuvette and gently stirred (total volume 2000 µL, final lipid concentration 13 µM). Carboxyfluorescein fluorescence was monitored at λ em = 517 nm (λ ex = 492 nm) as a function of time after addition of POMs at 60 s, analyte at 120 s and Triton X‐100 (24 µL 1.2% wt/vol) at 600 s to lyse the vesicles, for calibration. Fluorescence intensities were normalized to fractional emission as (1) It=It−I0/I∞−I0 where I 0 = I t before POM addition and […] after lysis. For Hill analysis, I t before lysis was defined as transport activity, Y, and plotted against POM concentration, c, and fitted to the Hill Equation (2), to afford the activity in absence of POM, Y 0, the maximal activity, Y max, the concentration needed to achieve 50% of maximal activity, EC 50, and the Hill coefficient, n (2) Y=Y0+Ymax−Y0/1+EC50/c^n
In the transport measurements, where different carriers (POMs) are tested with the same cargo, the activator efficiency (E) is determined by their capacity to transport the impermeable cargo to the intravesicular region and is characterized by Y max, its maximal activity, and EC 50, the effective activator concentration. An ideal carrier reaches high Y max at low EC 50. To count both factors, the activator efficiency is defined as (3) E=YmaxpEC50/f were pEC 50 is the negative logarithm of the EC 50, and f a scaling factor, which was set to 20.6 to calibrate the highest (previously known) activation efficiency, E, as 10.^[ [55] ^]

Where [5] appears, read: 3 mM POM, 10 mM Mes pH 5.5, 31P NMR integration.
Where [6] appears, read: 3 mM POM, 10 mM Tris-HCl pH 7.5, 31P NMR integration.

Where two headings read alike, the source gives them in different places.

Regarding “K4[α‐P^VV^VW^VI 11O40]·4H2O [[PVW11]^4‒]”, the “Ka/ 107, polyarginine” value in series [1] is reported as 3.5 M‒1. The “Ka/ 107, heptaarginine” value in series [2] (pH 7.4, 298.15 K, value is Ka divided by 10^7, duplicates) turned out to be 5.7 M‒1. In addition, in series [2] (pH 7.4, POM/oligoarginine 100/8 and 200/10 µM), the “Ka, heptaarginine (Figure 2c,d)” value is 5.7e+07 M⁻¹. In addition, the “% monolacunary [PVWVI11O39]7‒ formed, Mes pH 5.5 after 1 day” value in series [3] (setting [5]) is 1%. For the same substance, the “% monolacunary [PVWVI11O39]7‒ formed, Mes pH 5.5 after 5 days” value in series [3] (setting [5]) was determined as 1%. The “% parent anion, Mes pH 5.5 after 1 day” value in series [3] (setting [5]) is given as 99%. For the same substance, the “% parent anion, Mes pH 5.5 after 5 days” value in series [3] (setting [5]) is listed as 99%. The “% parent (active) anion, Mes pH 5.5 freshly prepared” value in series [3] (3 mM POM, 10 mM Mes pH 5.5, 31P NMR signal integration, appr. 3 h after dissolution) is on record as 99%. Further, the “% parent anion, Tris-HCl pH 7.5 after 1 day” value in series [3] (setting [6]) came to 71%. Moreover, the “% parent anion, Tris-HCl pH 7.5 after 5 days” value in series [3] (setting [6]) worked out at 68%. For the same substance, in series [3], the “Hydrolysis/stability pH 5.5” value is listed as “Stable”. Also, the “heptaLys Ymax” value in series [4] (CF assay, EYPC (zwitterionic), 13 µM phospholipids, heptaLys cargo, ±2% error (SD)) came to 62%. Moreover, the EC50 in series [4] (CF assay, EYPC (zwitterionic), heptaLys cargo, 5% error (SD), read-out: heptaLys EC50) worked out at 38 µM; in series [4] (CF assay, EYPC LUVs, 0.1 µM polyArg, pH 7.4, 5% error (SD), read-out: PolyArg EC 50) it was 12 µM; in series [4] (CF assay, EYPC LUVs, 1 µM protamine, pH 7.4, 5% error (SD), read-out: Protamine EC 50) it was 41 µM; in series [4] (CF assay, EYPC LUVs, 10 µM heptaArg, pH 7.4, carrier concentration for 50% of Ymax, 5% error (SD), read-out: HeptaArg EC 50), 49 µM; in series [4] (CF assay, EYPC vesicles, heptaArg cargo, 10 mM Mes, 107 mM NaCl, pH 5.5, 5% error (SD), read-out: HeptaArg EC50, pH 5.5), 28 µM; in series [4] (CF assay, EYPC vesicles, polyArg cargo, pH 5.5, read-out: PolyArg EC50, pH 5.5), 5 µM. In series [4] (CF assay, EYPC vesicles, protamine cargo, pH 5.5, read-out: Protamine EC50, pH 5.5), the EC50 was determined as 19 µM. Besides, in series [4] (CF assay, EYPC LUVs, 13 µM lipid, 10 µM heptaArg, 10 mM Hepes or Tris, 107 mM NaCl, pH 7.4, 10 min, Hill fit, triplicates, ±2% error (SD)), the “HeptaArg Y max” value came to 84%. For the same substance, the “PolyArg Y max” value in series [4] (CF assay, EYPC LUVs, 0.1 µM polyArg, pH 7.4, ±2% error (SD)) worked out at 88%. The “Protamine Y max” value in series [4] (CF assay, EYPC LUVs, 1 µM protamine, pH 7.4, ±2% error (SD)) came out at 88%. Besides, in series [4] (CF assay, EYPC vesicles, 10 µM heptaArg, 10 mM Mes, 107 mM NaCl, pH 5.5, ±2% error (SD)), the “HeptaArg Ymax, pH 5.5” value amounted to 79%. The “PolyArg Ymax, pH 5.5” value in series [4] (CF assay, EYPC vesicles, polyArg cargo, 10 mM Mes, 107 mM NaCl, pH 5.5) was determined as 91%. Besides, the “Protamine Ymax, pH 5.5” value in series [4] (CF assay, EYPC vesicles, protamine cargo, 10 mM Mes, 107 mM NaCl, pH 5.5) is reported as 79%. In addition, the “heptaLys E” value in series [4] (EYPC (zwitterionic), heptaLys cargo, f = 20.6, 10% error) is on record as 4.3. In series [4] (EYPC LUVs, 0.1 µM polyArg, pH 7.4, f = 20.6, 10% error), the “PolyArg E (activation efficiency)” value is 8.2. In addition, the “Protamine E (activation efficiency)” value in series [4] (EYPC LUVs, 1 µM protamine, pH 7.4, f = 20.6, 10% error) was 5.9. Also, in series [4] (EYPC LUVs, 10 µM heptaArg, pH 7.4, E = Ymax(pEC50/f), f = 20.6, 10% error), the “HeptaArg E (activation efficiency)” value is reported as 5.3. For the same substance, in series [4] (EYPC vesicles, heptaArg, pH 5.5, f = 20.6, 10% error), the “HeptaArg E, pH 5.5” value is 5.9. Further, the “PolyArg E, pH 5.5” value in series [4] (EYPC vesicles, polyArg, pH 5.5, f = 20.6) was determined as 10.1. For the same substance, the “Protamine E, pH 5.5” value in series [4] (EYPC vesicles, protamine, pH 5.5, f = 20.6) was determined as 6.6. Moreover, in series [4], the “Transport activity (in words)” value is “triggered the desired increase in fluorescence characteristic for cargo transport”. Moreover, the “Onset for transport activity (carrier concentration)” value in series [4] (vesicles, heptaArg dose-response curves (Figure 2b)) was “around 1 µM”.
On to Na3[α‐P^VW^VI 12O40]·nH2O [[PW12]^3‒], for which, in series [3] (setting [5]), the “% monolacunary [PVWVI11O39]7‒ formed, Mes pH 5.5 after 1 day” value was found to be 61%; the “% monolacunary [PVWVI11O39]7‒ formed, Mes pH 5.5 freshly prepared” value amounted to 61%; the “% parent anion, Mes pH 5.5 after 1 day” value was found to be 5%. In addition, the “% parent anion, NaOAc/HOAc pH 4 after 1 day” value in series [3] (3 mM POM, 10 mM NaOAc/HOAc pH 4, 31P NMR integration) was 28%. The “Hydrolysis/stability pH 5.5” value in series [3] was “to [P^VW^VI 11O39]^7‒”. Besides, in series [4] (EYPC vesicles, pH 5.5 and 7.4, cargos heptaArg, protamine, polyArg ([AlMo6]: heptaArg and protamine only)), the “Carrier activity” value is listed as “‐ – ‐ ^k) , ^l)”. Also, the “Transport activity (in words)” value in series [4] is listed as “neither an interaction with the membrane nor cargo transport”.
